Results published in ChEMBL document CHEMBL5107956, “Natural products from mangrove sediments-derived microbes: Structural diversity, bioactivities, biosynthesis, and total synthesis” (Eur J Med Chem, 2022).
≈ marks a conversion by molar mass, not a printed value.

What was measured:
Vibrio splendidus = test: Antibacterial activity against Vibrio splendidus as bacterial growth inhibition; type: functional, organism-based
[1] = biological target: Prostaglandin G/H synthase 2 (Homo sapiens) (UniProt P35354); test: Inhibition of COX2 (unknown origin) at 20 nM relative to control
Sequence of Prostaglandin G/H synthase 2 (Homo sapiens) (P35354 whole entry, looked up): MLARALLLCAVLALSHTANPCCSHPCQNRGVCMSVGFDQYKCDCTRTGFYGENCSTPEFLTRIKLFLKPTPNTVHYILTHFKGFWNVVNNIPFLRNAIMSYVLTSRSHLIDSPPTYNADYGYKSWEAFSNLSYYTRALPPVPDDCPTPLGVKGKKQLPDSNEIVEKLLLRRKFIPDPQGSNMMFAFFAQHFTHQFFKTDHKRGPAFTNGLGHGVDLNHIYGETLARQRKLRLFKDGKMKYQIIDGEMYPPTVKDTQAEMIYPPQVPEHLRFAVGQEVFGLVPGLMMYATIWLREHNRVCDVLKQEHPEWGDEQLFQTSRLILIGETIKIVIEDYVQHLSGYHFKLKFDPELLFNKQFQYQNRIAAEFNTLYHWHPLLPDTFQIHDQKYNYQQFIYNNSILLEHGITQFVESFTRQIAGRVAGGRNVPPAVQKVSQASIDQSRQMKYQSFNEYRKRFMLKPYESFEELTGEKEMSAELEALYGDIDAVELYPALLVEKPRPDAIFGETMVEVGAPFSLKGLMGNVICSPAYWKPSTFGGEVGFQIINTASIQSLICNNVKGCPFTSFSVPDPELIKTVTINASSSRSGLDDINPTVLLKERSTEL

Staphylococcus aureus = test: Antibacterial activity against Staphylococcus aureus ATCC 25923 assessed as bacterial growth inhibition; type: functional, organism-based
Vibrio anguillarum = test: Antibacterial activity against Vibrio anguillarum assessed as cell growth inhibition; type: functional
Aeromonas hydrophila = test: Antibacterial activity against Aeromonas hydrophila assessed as cell growth inhibition; type: functional
Vibrio harveyi = test: Antibacterial activity against Vibrio harveyi assessed as cell growth inhibition; type: functional
SF-268 = test: Cytotoxicity against human SF-268 cells assessed as cell growth inhibition incubated for 48 hrs by MTT assay; type: functional, cell-based; settings: SF-268, 48 h
MCF7 = test: Cytotoxicity against human MCF7 cells assessed as cell growth inhibition incubated for 48 hrs by MTT assay; type: functional, cell-based; settings: MCF7, 48 h
NCI-H460 = test: Cytotoxicity against human NCI-H460 cells assessed as cell growth inhibition incubated for 48 hrs by MTT assay; type: functional, cell-based; settings: NCI-H460, 48 h
K562 = test: Cytotoxicity against human K562 cells assessed as inhibition of cell growth by MTT assay; type: functional, cell-based
Acetylcholinesterase = Acetylcholinesterase (Homo sapiens, UniProt P22303); test: Inhibition of AChE (unknown origin) using acetylthiocholine iodide as substrate measured after 30 mins by Ellman's method
Sequence of Acetylcholinesterase (P22303 whole entry): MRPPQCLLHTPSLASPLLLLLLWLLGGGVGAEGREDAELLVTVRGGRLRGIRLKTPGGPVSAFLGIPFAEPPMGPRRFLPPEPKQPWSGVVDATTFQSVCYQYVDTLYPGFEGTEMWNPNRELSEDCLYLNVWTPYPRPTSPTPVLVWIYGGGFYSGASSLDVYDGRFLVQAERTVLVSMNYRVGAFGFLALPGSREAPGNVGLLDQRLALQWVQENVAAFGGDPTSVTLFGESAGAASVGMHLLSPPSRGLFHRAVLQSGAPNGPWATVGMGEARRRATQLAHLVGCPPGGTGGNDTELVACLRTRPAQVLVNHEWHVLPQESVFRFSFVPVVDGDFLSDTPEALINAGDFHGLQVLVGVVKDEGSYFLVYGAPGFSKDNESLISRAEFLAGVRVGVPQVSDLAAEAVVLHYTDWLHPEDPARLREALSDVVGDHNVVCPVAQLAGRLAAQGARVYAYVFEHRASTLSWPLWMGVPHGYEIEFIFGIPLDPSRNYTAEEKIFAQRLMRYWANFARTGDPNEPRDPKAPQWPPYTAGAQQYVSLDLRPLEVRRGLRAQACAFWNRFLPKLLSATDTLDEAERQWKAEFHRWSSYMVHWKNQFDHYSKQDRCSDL

[2] = Antioxidant activity assessed as DPPH radical scavenging activity incubated for 30 mins by […] assay; type: functional
Aspergillus niger = test: Antifungal activity against Aspergillus niger MTCC 282 assessed as cell growth inhibition measured after 48 to 72 hrs; type: functional; settings: time 48-72 hrs
Saccharomyces cerevisiae = test: Antifungal activity against Saccharomyces cerevisiae MTCC 170 assessed as cell growth inhibition measured after 48 to 72 hrs; type: functional; settings: time 48-72 hrs
Candida albicans = test: Antifungal activity against Candida albicans MTCC 227 assessed as cell growth inhibition measured after 48 to 72 hrs; type: functional; settings: time 48-72 hrs
A549 = test: Cytotoxicity against human A549 cells assessed as cell growth inhibition measured after 72 hrs by MTT assay; type: functional, cell-based; settings: A549, 72 h
Bel-7402 = test: Cytotoxicity against human Bel-7402 cells assessed as cell growth inhibition measured after 72 hrs by MTT assay; type: functional, cell-based; settings: Bel-7402, 72 h
Proteus vulgaris = test: Antibacterial activity against Proteus vulgaris MTCC 7299 assessed as bacterial growth inhibition incubated for 48 to 72 hrs by agar plate diffusion assay; type: functional; settings: time 48-72 hrs
Rhizoctonia solani = test: Antifungal activity against Rhizoctonia solani assessed as inhibition of fungal growth at 10 ug/ml relative to control; type: functional
Leishmania major = test: Antileishmanial activity against Leishmania major NR48815 promastigotes assessed as parasite growth inhibition incubated for 24 hrs by alamar blue staining based analysis; type: functional, organism-based; settings: NR48815, 24 h
[3] = system: Trypanosoma brucei brucei; test: Antitrypanosomal activity against Trypanosoma brucei brucei GUTat3.1 assessed as parasite growth inhibition measured after 24 hrs by alamar blue staining based analysis; type: functional, organism-based; settings: GUTat3.1, 24 h
Leishmania donovani = test: Antileishmanial activity against Leishmania donovani D10 promastigotes assessed as parasite growth inhibition incubated for 24 hrs by alamar blue staining based analysis; type: functional, organism-based; settings: D10, 24 h
Plasmodium falciparum = test: Antiplasmodial activity against Plasmodium falciparum 3D7 infected in human erythrocyte assessed as intraerythrocytic growth inhibition measured after 24 hrs by alamar blue staining based analysis; type: functional, organism-based; settings: 3D7, Erythrocyte
JeKo-1 = test: Cytotoxicity against human JeKo-1 cells assessed as cell growth inhibition by MTT assay; type: functional, cell-based
[4] = Antioxidant activity assessed as DPPH radical scavenging activity incubated for 30 mins under dark condition; type: functional
[5] = Antioxidant activity assessed as free radical scavenging activity by DPPH assay; type: functional
[6] = system: Pseudopestalotiopsis theae; test: Antifungal activity Pestalotiopsis theae assessed as fungal growth inhibition per disc measured after 7 days by paper disc dilution method; type: functional, organism-based
[7] = Inhibition of influenza A virus Neuraminidase N3 incubated for 10 mins by fluorescence based analysis
HepG2 2.2.15 = test: Antiproliferative activity against human HepG2.2.15 cells assessed as cell growth inhibition by MTT assay; type: functional, cell-based
Influenza A virus = test: Antiviral activity against Influenza A virus H1N1 by CPE inhibition assay; type: functional, organism-based
P388 = test: Cytotoxicity against mouse P388 cells assessed as cell growth inhibition by MTT assay; type: functional, cell-based
HL-60 = test: Antiproliferative activity against human HL-60 cells assessed as cell growth inhibition by MTT assay; type: functional, cell-based
HEp-2 = test: Cytotoxicity against human HEp-2 cells assessed as cell growth inhibition by MTT assay; type: functional, cell-based
HepG2 = test: Cytotoxicity against human HepG2 cells assessed as cell growth inhibition by MTT assay; type: functional, cell-based

CC(C)=CCc1cc(C[C@@]2(C(=O)O)OC(=O)C(OC(C)(C)[C@@H](O)Cc3cc(C[C@@]4(C(=O)O)OC(=O)C(O)=C4c4ccc(O)cc4)ccc3O)=C2c2ccc(O)cc2)ccc1O
IC50 (Vibrio splendidus): 3.7 µM | inhibition [1]: 76.5% | IC50 (Staphylococcus aureus): 1300 nM

C[C@H](O)/C=C1/C(=O)O[C@H]([C@@H](C)O)[C@@H]1O
MIC (Vibrio anguillarum): 8 µg/mL (≈ 39.6 µM) | MIC (Aeromonas hydrophila): 8 µg/mL (≈ 39.6 µM) | MIC (Vibrio harveyi): 8 µg/mL (≈ 39.6 µM)

CC(C)[C@@H](C)/C=C/[C@@H](C)[C@H]1CC[C@H]2C3=CC(=O)N(CCO)[C@@]3(O)CC[C@]12C
IC50 (SF-268): 13 µg/mL (≈ 34.6 µM) | IC50 (MCF7): 18.1 µg/mL (≈ 48.2 µM) | IC50 (NCI-H460): 23.5 µg/mL (≈ 62.6 µM)

C[C@@H]1OC(=O)[C@@H](O)[C@@H](C)OC(=O)[C@H](C)[C@H]1O
IC50 (K562): 1360 nM

C[C@H]1CN2C(=O)[C@]34Cc5c([nH]c6c7c(ccc56)OC(C)(C)CC7=O)C(C)(C)[C@@H]3C[C@@]2(C1)C(=O)N4
IC50 (Acetylcholinesterase): 58 µM

C=CCOc1ccccc1O [1-hydroxy-2-allyloxybenzene]
IC50 [2]: 22 µg/mL (≈ 146 µM) | MIC (Aspergillus niger): 200 µg/mL (≈ 1330 µM) | MIC (Saccharomyces cerevisiae): 200 µg/mL (≈ 1330 µM) | MIC (Candida albicans): 200 µg/mL (≈ 1330 µM)

C=CC(C)(C)c1[nH]c2c(CC=C(C)C)cc(CC=C(C)C)cc2c1C[C@@H]1NC(=O)C(=C)NC1=O
IC50 (A549): 1430 nM | IC50 (Bel-7402): 4.2 µM

CCCOC(=O)c1ccccc1C(=O)OC(C)CC (centres undefined)
MIC (Proteus vulgaris): 4 µg/mL (≈ 15.1 µM)

Cc1oc2cc3cc(O)cc(O)c3c(O)c2c(=O)c1C
inhibition at 10 µg/mL (Rhizoctonia solani): 50.2%

Cc1c(C)[n+](CCC(C)C)c(-c2n(CCc3ccccc3)c(C)c(C)[n+]2CCC(C)C)n1CCc1ccccc1
IC50 (Leishmania major): 7.02 µM | IC50 [3]: 780 nM | IC50 (Leishmania donovani): 750 nM | IC50 (Plasmodium falciparum): 9.08 µM

CC1=CCC[C@@]2(C)C=C3OC(=O)C(CO)=C3C[C@H]12
IC50 (JeKo-1): 8.4 µM

COc1c(O)c2c(c(O)c1CO)C(=O)OCC2
IC50 [4]: 25.7 µM

COc1cc(O)cc(C2OC(=O)c3c(O)cc(C)c(O)c32)c1O (centres undefined)
IC50 [5]: 1.23 µg/mL (≈ 3.86 µM)

COC(=O)/C=C/C1=CC(=O)CC1O (centres undefined)
IC50 [6]: 125 µg

CN1C(=O)c2cc(O)ccc2NC(=O)C12O[C@H]2c1ccccc1 (some centres undefined)
IC50 [7]: 5.02 µM

C[C@@H](O)Cc1cc(O)c2c(c1)C(=O)c1c(O)c(O)cc(O)c1C2=O
IC50 (HepG2 2.2.15): 4.63 µM

CC[C@@H](C)C1=C2NC(=O)[C@@](O)(C/C(=C\C=O)OC)C(=O)N2[C@H](C(C)C)C(=O)N1
IC50 (Influenza A virus): 50 µM

C=CC(C)(C)c1[nH]c2ccccc2c1/C=C1\NC(=O)C2(CC(C)C=CC2CCc2c(O)cc(CC=C(C)C)c(O)c2C=O)NC1=O (centres undefined)
IC50 (P388): 1830 nM | IC50 (HL-60): 4.8 µM

COC(=O)c1cc(O)cc2oc3cc(C)c(O)cc3c(=O)c12
IC50 (HEp-2): 8 µg/mL (≈ 26.6 µM) | IC50 (HepG2): 9 µg/mL (≈ 30 µM)
